The values that follow are results of earlier work, collected in patent US20080014263A1, “Amorphous eprosartan mesylate and process for the preparation thereof” (Glenmark Pharmaceuticals Limited, priority 2006, published 2008).

Where a name gives a salt, the structure may show the parent alone.

The conditions of this series: white to off-white free-flowing crystalline powder.

`CCCCc1ncc(/C=C(\Cc2cccs2)C(=O)O)n1Cc1ccc(C(=O)O)cc1` [Eprosartan mesylate, monomethanesulphonate of (E)-2-butyl-1-(p-carboxybenzyl)-α-2-thienylmethylimidazole-5-acrylic acid]: under “ethanol”, the solubility in ethanol entry is given as “freely soluble”. Besides, the solubility in water entry (water) is “insoluble”.
